# Laboratory results: article PMC9021288 (Nature Communications, 2022)
# Several values for one entry are separate records, joined by “and”; a condition that tells them apart may be missing. Equal entries are not always repeated. Entries after “also recorded” stand apart in the source; their conditions may differ.
# Legend:
# [1] = tested on: P. falciparum (NF54-HGL) stage V gametocytes fed to A. stephensi; experiment: Transmission-blocking mosquito feeding assay (oocyst luminescence); type: cell-based, Plasmodium falciparum
# Method: The transmission-blocking activity of compounds was determined as described previously. Briefly, NF54-HGL parasites were set up at 1% parasitemia in a semi-automated shaker system at 5% hematocrit. […] Eight days after the feed, luminescence was quantified to determine oocyst intensity.
# [2] = tested on: human G6PD-A-deficient RBCs; experiment: Hemolytic toxicity in NSG mice engrafted with G6PD-deficient human RBCs; details: for Hematocrit / Spleen weight: individual mice
# Method: Hemolytic toxicity was determined in female NSG mice (Jackson Laboratories) using erythrocytes from a G6PD-A-deficient blood donor (0.4 u/g hemoglobin).
# [3] = target: T1, panel of human receptors and channels (Homo sapiens, UniProt P37231); type: binding; details: PPARγ (h) (agonist radioligand); Rep1, Rep2, Mean
# T1 construct: purchased Eurofins CEREP
# [4] = target: T2, panel of human receptors and channels (Homo sapiens, UniProt P32239); type: binding; details: CCK2 (CCKB) (h) (agonist radioligand); Rep1, Rep2, Mean
# T2 construct: purchased Eurofins CEREP
# [5] = target: T3, panel of human receptors and channels (Homo sapiens, UniProt P31645); type: binding; details: 5-HT transporter (h) (antagonist radioligand); Rep1, Rep2, Mean
# T3 construct: purchased Eurofins CEREP
# [6] = target: T4, panel of human receptors and channels (Homo sapiens, UniProt P21917); type: binding; details: D4.4 (h) (antagonist radioligand); Rep1, Rep2, Mean
# T4 construct: purchased Eurofins CEREP
# [7] = target: T5, panel of human receptors and channels (Homo sapiens, UniProt Q01959); type: binding; details: dopamine transporter (h) (antagonist radioligand); Rep1, Rep2, Mean
# T5 construct: purchased Eurofins CEREP
# [8] = target: T6, panel of human receptors and channels (Homo sapiens, UniProt P25021); type: binding; details: H2 (h) (antagonist radioligand); Rep1, Rep2, Mean
# T6 construct: purchased Eurofins CEREP
# [9] = target: T7, panel of human receptors and channels (Homo sapiens, UniProt P30542); type: binding; details: A1 (h) (antagonist radioligand); Rep1, Rep2, Mean
# T7 construct: purchased Eurofins CEREP
# [10] = target: T8, panel of human receptors and channels (Homo sapiens, UniProt Q9GZV3); type: binding; details: choline transporter (CHT1) (h) (antagonist radioligand); Rep1, Rep2, Mean
# T8 construct: purchased Eurofins CEREP
# [11] = target: T9, panel of human receptors and channels (Homo sapiens, UniProt P25101); type: binding; details: ETA (h) (agonist radioligand); Rep1, Rep2, Mean
# T9 construct: purchased Eurofins CEREP
# [12] = target: T10, panel of human receptors and channels (Homo sapiens, UniProt P0DMS8); type: binding; details: A3 (h) (agonist radioligand); Rep1, Rep2, Mean
# T10 construct: purchased Eurofins CEREP
# [13] = target: T11, panel of human receptors and channels (Homo sapiens, UniProt P32238); type: binding; details: CCK1 (CCKA) (h) (agonist radioligand); Rep1, Rep2, Mean
# T11 construct: purchased Eurofins CEREP
# [14] = target: T12, panel of human receptors and channels (Homo sapiens, UniProt P43116); type: binding; details: EP2 (h) (agonist radioligand); Rep1, Rep2, Mean
# T12 construct: purchased Eurofins CEREP
# [15] = target: T13, panel of human receptors and channels (Homo sapiens, UniProt P04150); type: binding; details: GR (h) (agonist radioligand); Rep1, Rep2, Mean
# T13 construct: purchased Eurofins CEREP
# [16] = target: T14, panel of human receptors and channels (Homo sapiens, UniProt P50052); type: binding; details: AT2 (h) (agonist radioligand); Rep1, Rep2, Mean
# T14 construct: purchased Eurofins CEREP
# [17] = Pharmacokinetics in dogs (cassette dosing); type: in vivo, Beagle dogs
# Method: Subsequently, samples were spun down at 1640 g for 5-10 min at 4 °C within 30 min after collection and plasma was collected. […] Urine was collected following an intravenous dose in both rat and dog, allowing renal clearance to be estimated. Human renal clearance was estimated from dog renal clearance as previously described[40] and other human PK parameters were predicted using allometric scaling and/or in vitro clearance data. PK parameters were calculated by naïve pooled approach using WinNonLin software (Phoenix, version 6.3).
# [18] = 10 mg/kg group, day 0, individual mice
# [19] = 10 mg/kg group, day 4, individual mice
# [20] = 10 mg/kg group, day 7, individual mice
# [21] = 25 mg/kg group, day 0, individual mice
# [22] = 25 mg/kg group, day 4, individual mice
# [23] = 25 mg/kg group, day 7, individual mice
# [24] = 50 mg/kg group, day 0, individual mice
# [25] = 50 mg/kg group, day 4, individual mice
# [26] = 50 mg/kg group, day 7, individual mice
# T3 sequence (P31645 whole entry): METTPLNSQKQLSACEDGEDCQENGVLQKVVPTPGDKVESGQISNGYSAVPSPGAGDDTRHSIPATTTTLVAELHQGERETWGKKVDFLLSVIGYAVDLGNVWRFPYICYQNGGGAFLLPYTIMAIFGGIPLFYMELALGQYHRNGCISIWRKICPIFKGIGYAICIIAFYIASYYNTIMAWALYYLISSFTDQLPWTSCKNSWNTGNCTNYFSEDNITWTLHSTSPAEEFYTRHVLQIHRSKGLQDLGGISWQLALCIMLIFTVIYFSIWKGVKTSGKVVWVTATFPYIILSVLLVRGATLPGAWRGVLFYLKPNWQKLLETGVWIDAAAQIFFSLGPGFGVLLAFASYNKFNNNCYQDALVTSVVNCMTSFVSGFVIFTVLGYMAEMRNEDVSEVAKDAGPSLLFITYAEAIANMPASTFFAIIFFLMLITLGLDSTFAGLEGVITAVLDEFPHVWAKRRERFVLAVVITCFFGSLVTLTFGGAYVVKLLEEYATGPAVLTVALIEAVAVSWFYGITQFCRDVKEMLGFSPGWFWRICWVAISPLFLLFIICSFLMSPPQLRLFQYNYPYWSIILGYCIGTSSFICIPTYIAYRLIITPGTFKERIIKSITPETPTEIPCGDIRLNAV
# T8 sequence (Q9GZV3 whole entry): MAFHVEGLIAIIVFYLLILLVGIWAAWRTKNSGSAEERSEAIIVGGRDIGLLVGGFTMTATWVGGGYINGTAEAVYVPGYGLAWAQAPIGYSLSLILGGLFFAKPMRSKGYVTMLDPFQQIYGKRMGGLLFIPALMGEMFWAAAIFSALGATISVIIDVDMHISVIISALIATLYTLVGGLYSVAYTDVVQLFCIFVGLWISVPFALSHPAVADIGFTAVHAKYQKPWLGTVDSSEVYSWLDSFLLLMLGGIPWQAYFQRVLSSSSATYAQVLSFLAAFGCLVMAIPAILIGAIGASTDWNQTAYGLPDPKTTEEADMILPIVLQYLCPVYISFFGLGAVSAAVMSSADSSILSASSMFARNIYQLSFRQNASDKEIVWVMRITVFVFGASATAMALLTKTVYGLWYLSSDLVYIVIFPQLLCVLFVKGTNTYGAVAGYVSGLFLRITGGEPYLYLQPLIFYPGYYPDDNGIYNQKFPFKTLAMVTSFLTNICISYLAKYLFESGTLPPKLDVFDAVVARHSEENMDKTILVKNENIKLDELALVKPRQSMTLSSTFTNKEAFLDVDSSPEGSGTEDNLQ
# T10 sequence (P0DMS8 whole entry): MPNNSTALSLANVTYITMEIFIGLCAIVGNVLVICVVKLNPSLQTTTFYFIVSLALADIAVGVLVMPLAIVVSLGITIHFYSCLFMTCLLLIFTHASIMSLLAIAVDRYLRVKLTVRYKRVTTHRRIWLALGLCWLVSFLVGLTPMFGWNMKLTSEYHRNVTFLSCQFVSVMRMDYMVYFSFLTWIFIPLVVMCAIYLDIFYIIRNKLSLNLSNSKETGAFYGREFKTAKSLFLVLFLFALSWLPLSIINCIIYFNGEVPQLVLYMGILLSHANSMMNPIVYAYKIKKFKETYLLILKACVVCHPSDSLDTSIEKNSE
# T1 sequence (P37231 whole entry): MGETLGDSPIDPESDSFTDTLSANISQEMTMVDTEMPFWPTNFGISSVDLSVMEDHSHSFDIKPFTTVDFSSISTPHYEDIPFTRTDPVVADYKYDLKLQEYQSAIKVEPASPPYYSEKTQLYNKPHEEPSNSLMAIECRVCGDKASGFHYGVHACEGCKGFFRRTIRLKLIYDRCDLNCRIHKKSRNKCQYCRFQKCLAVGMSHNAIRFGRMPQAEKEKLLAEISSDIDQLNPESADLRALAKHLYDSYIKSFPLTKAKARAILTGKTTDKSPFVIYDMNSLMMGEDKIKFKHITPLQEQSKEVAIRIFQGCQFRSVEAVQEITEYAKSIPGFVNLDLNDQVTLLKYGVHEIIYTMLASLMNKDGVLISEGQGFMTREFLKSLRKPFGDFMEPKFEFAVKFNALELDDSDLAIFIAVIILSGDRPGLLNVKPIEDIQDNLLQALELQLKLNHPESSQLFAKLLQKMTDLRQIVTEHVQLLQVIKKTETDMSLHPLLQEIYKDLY
# T9 sequence (P25101 21-427): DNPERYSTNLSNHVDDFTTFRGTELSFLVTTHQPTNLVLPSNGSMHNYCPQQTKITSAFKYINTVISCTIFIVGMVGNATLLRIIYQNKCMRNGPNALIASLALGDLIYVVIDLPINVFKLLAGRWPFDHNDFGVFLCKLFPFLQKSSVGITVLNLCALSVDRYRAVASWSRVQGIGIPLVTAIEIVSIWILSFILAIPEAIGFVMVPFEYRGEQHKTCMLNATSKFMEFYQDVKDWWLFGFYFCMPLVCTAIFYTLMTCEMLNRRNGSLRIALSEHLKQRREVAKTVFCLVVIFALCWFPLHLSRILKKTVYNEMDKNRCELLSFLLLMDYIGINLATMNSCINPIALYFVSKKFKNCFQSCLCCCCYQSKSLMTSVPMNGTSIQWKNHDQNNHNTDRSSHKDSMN
# T11 sequence (P32238 whole entry): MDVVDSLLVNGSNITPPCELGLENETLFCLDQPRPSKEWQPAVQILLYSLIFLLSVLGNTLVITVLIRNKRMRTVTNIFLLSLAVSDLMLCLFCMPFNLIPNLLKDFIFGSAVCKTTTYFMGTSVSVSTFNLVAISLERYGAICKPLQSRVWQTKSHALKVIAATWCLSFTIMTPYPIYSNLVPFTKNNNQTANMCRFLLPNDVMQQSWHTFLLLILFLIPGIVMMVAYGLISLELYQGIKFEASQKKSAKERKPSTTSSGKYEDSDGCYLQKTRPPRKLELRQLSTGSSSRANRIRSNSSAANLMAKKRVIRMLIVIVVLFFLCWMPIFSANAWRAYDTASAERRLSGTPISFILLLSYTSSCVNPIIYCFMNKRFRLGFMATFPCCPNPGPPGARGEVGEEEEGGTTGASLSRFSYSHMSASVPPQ
# T6 sequence (P25021 whole entry): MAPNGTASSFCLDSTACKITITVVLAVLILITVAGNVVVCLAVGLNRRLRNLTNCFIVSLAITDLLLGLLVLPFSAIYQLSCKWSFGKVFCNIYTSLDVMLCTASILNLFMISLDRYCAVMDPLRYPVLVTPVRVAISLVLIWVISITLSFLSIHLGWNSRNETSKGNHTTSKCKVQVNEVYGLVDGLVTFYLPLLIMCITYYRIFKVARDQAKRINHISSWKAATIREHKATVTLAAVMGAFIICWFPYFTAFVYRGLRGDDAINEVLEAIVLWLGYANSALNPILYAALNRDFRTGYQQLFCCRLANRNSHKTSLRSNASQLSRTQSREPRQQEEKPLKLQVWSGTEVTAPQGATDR
# T2 sequence (P32239 whole entry): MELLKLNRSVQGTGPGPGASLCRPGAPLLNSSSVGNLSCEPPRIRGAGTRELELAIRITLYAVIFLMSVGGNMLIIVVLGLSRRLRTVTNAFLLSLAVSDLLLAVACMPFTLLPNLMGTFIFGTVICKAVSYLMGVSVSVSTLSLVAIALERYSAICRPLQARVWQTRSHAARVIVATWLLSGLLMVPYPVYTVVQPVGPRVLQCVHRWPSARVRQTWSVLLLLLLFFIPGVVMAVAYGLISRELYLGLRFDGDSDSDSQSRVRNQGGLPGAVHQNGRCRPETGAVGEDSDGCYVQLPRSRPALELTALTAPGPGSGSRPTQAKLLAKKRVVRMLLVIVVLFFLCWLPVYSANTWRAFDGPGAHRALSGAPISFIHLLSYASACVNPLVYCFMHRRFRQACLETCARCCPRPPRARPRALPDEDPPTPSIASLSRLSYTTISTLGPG
# T12 sequence (P43116 whole entry): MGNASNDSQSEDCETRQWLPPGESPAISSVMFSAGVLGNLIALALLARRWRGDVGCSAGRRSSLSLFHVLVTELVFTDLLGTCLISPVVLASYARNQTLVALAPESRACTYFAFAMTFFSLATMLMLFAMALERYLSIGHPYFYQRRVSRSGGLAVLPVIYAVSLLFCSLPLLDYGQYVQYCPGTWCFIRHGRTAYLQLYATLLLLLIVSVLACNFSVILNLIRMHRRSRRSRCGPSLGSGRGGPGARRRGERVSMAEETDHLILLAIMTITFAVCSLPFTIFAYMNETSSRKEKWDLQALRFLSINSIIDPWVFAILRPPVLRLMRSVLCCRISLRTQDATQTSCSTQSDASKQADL
# T4 sequence (P21917 whole entry): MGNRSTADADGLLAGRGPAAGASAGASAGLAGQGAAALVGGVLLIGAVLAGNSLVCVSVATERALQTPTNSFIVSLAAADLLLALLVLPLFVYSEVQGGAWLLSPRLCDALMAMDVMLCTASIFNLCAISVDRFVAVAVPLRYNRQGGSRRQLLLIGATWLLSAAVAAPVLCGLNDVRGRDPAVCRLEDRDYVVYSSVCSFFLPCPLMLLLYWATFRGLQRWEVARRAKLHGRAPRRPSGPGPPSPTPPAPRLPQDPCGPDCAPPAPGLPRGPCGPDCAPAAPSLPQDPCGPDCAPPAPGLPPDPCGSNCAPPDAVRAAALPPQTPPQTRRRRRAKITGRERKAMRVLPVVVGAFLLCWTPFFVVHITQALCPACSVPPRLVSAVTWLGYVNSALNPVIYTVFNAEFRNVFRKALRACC
# T7 sequence (P30542 whole entry): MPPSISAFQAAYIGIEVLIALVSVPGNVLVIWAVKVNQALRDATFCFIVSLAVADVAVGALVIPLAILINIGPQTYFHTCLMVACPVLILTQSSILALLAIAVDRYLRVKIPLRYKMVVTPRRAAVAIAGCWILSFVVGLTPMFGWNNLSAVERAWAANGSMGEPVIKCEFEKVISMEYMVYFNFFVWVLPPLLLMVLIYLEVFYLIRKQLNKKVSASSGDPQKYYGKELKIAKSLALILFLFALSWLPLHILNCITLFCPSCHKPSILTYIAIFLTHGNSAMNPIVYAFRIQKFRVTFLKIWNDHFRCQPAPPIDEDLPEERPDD
compound,measurement,setting,value
C[C@@H](CNC(=O)[C@H](O)C(C)(C)CO)NC(=O)c1cc(F)c(F)cc1F [MMV693183],midgut infection,[1]; 1 µM directly at the time of the mosquito feed,did not inhibit midgut infection
same,IC50,"[1]; gametocytes treated 24 h before feeding to A. stephensi, read-out: IC50 oocyst formation",38 nM
same,Human RBCs,[2]; [18],72.9% and 76.8% and 80.6% and 72.4%
same,Reticulocytes,[2]; [18],0.38% and 0.65% and 0.32% and 0.87%
same,Human RBCs,[2]; [19],67.9% and 72.1% and 75.9% and 68.6%
same,Reticulocytes,[2]; [19],0.35% and 0.44% and 0.25% and 0.57%
same,Human RBCs,[2]; [20],59.6% and 65.8% and 72.2% and 63.3%
same,Reticulocytes,[2]; [20],0.17% and 0.14% (2×) and 0.35%
same,Hematocrit,[2]; 10 mg/kg group,53.45% and 54.69% and 60.66% and 56.45%
same,Spleen weight,[2]; 10 mg/kg group,0.305 % of body weight and 0.306 % of body weight and 0.265 % of body weight and 0.369 % of body weight
same,Human RBCs,[2]; [21],78.9% and 75.9% and 78.6% and 71.6% and 75.5%
same,Reticulocytes,[2]; [21],0.53% and 0.42% and 0.37% and 0.39% and 0.51%
same,Human RBCs,[2]; [22],77.9% and 71.9% and 76% and 64.1% and 70.3%
same,Reticulocytes,[2]; [22],0.24% (2×) and 0.32% and 0.61% and 0.43%
same,Human RBCs,[2]; [23],77.4% and 67.8% and 68% and 58.3% and 68.8%
same,Reticulocytes,[2]; [23],0.16% and 0.23% and 0.17% and 0.22% and 0.15%
same,Hematocrit,[2]; 25 mg/kg group,61.54% and 73.81% and 62.16% and 56.36% and 57.35%
same,Spleen weight,[2]; 25 mg/kg group,0.362 % of body weight and 0.462 % of body weight and 0.396 % of body weight and 0.366 % of body weight and 0.21 % of body weight
same,Human RBCs,[2]; [24],75.4% (2×) and 77.9% and 80.2% and 74.5%
same,Reticulocytes,[2]; [24],0.4% and 0.55% and 0.42% and 0.47% and 0.58%
same,Human RBCs,[2]; [25],72.3% and 72.5% and 71.7% and 73.2% and 70.5%
same,Reticulocytes,[2]; [25],0.27% and 0.41% and 0.23% and 0.34% and 0.49%
same,Human RBCs,[2]; [26],65.4% and 71.3% and 68.2% and 66% and 66.7%
same,Reticulocytes,[2]; [26],0.2% (2×) and 0.1% (2×) and 0.3%
same,Hematocrit,[2]; 50 mg/kg group,60.66% and 63.64% and 71.67% and 53.85% and 57.63%
same,Spleen weight,[2]; 50 mg/kg group,0.357 % of body weight and 0.427 % of body weight and 0.135 % of body weight and 0.294 % of body weight and 0.382 % of body weight
same,hemolytic toxicity,"[2]; 10, 25, 50 mg/kg for four days",Absence of detectable hemolytic toxicity; also recorded: did not show signs of hemolytic toxicity
same,% Inhibition of Control Specific Binding,[3],-8.7% and -7.1% and -7.9%
same,% Inhibition of Control Specific Binding,[4],10.5% and 16.3% and 13.4%
same,% Inhibition of Control Specific Binding,[5],-13.7% and -4.2% and -8.95%
same,% Inhibition of Control Specific Binding,[6],-1.9% and 2.9% and 0.5%
same,% Inhibition of Control Specific Binding,[7],-10.1% and -0.3% and -5.2%
same,% Inhibition of Control Specific Binding,[8],-9.2% and -5.1% and -7.15%
same,% Inhibition of Control Specific Binding,[9],-9.6% and -3.5% and -6.55%
same,% Inhibition of Control Specific Binding,[10],2.6% and 4.5% and 3.55%
same,% Inhibition of Control Specific Binding,[11],-8.1% and -6.5% and -7.3%
same,% Inhibition of Control Specific Binding,[12],-6.2% and -3.3% and -4.75%
same,% Inhibition of Control Specific Binding,[13],-13.7% and -11% and -12.35%
same,% Inhibition of Control Specific Binding,[14],-1.6% and 2.2% and 0.3%
same,% Inhibition of Control Specific Binding,[15],-7.3%
same,% Inhibition of Control Specific Binding,[16],7.4%
same,Observed hepatic/ predicted hepatic,[17]; Dog,0.95
same,Observed total-renal = observed hepatic,[17]; Dog,10.5 mL/min/kg
same,Predicted hepatic plasma clearance,[17]; Dog,11.1 mL/min/kg
same,Norm. conc i.v.,"[17]; Dog, Time (hrs) 0.083333",1180 ng/mL and 892 ng/mL and 1160 ng/mL
same,Norm. conc i.v.,"[17]; Dog, Time (hrs) 0.25",732 ng/mL and 660 ng/mL and 906 ng/mL
same,Norm. conc i.v.,"[17]; Dog, Time (hrs) 0.5",414 ng/mL and 439 ng/mL and 345 ng/mL
same,Norm. conc i.v.,"[17]; Dog, Time (hrs) 1",166 ng/mL and 228 ng/mL and 178 ng/mL
same,Norm. conc i.v.,"[17]; Dog, Time (hrs) 2",52.9 ng/mL and 68.5 ng/mL and 55.6 ng/mL
same,Norm. conc i.v.,"[17]; Dog, Time (hrs) 4",28.7 ng/mL and 29.7 ng/mL and 29.8 ng/mL
same,Norm. conc i.v.,"[17]; Dog, Time (hrs) 8",14.6 ng/mL and 21.2 ng/mL and 17.8 ng/mL
same,Norm. conc i.v.,"[17]; Dog, Time (hrs) 24",2 ng/mL and 3.19 ng/mL and 2.05 ng/mL
same,Norm. conc p.o.,"[17]; Dog, Time (hrs) 0.25",815 ng/mL and 580 ng/mL and 439 ng/mL
same,Norm. conc p.o.,"[17]; Dog, Time (hrs) 0.5",485 ng/mL and 365 ng/mL and 280.5 ng/mL
same,Norm. conc p.o.,"[17]; Dog, Time (hrs) 1",132.5 ng/mL and 118.5 ng/mL and 171.5 ng/mL
same,Norm. conc p.o.,"[17]; Dog, Time (hrs) 2",29.9 ng/mL and 28.05 ng/mL and 47.05 ng/mL
same,Norm. conc p.o.,"[17]; Dog, Time (hrs) 4",15.6 ng/mL and 14.15 ng/mL and 21.05 ng/mL
same,Norm. conc p.o.,"[17]; Dog, Time (hrs) 24",1 ng/mL and 1.115 ng/mL
same,AUC0-∞,"[17]; i.v. 1 mg/kg, mean",1451 ng·h/mL
same,AUClast,"[17]; i.v. 1 mg/kg, mean",1423 ng·h/mL
same,Cmax,"[17]; i.v. 1 mg/kg, mean",1077 ng/mL
same,Vss_obs,"[17]; i.v. 1 mg/kg, mean",1.79 L/kg
same,CLtotal,"[17]; i.v. 1 mg/kg, mean, 1 mg/kg",11.5 mL/min/kg and 11.52 mL/min/kg
same,T1/2,"[17]; i.v. 1 mg/kg, mean, 1 mg/kg",4.2 h and 4.23 h
same,AUC0-∞,"[17]; p.o. 2 mg/kg, mean",1902 ng·h/mL
same,AUClast,"[17]; p.o. 2 mg/kg, mean",1844 ng·h/mL
same,Cmax,"[17]; p.o. 2 mg/kg, mean",1286 ng/mL
same,T1/2,"[17]; p.o. 2 mg/kg, mean",2.93 h
same,F,"[17]; p.o. 2 mg/kg, mean, 2 mg/kg",64% and 63.7%
same,Tmax,"[17]; p.o. 2 mg/kg, mean, 2 mg/kg",0.333 h
